Like-named read-outs stand apart in the source and are kept apart here.

This is an account of results in patent US20090215752A1, “Compounds, preparation and therapeutic use thereof” (priority 2005, published 2009).

One assay has as its target T1, 5-HT transporter (Homo sapiens, UniProt P31645).
T1 construct: expressed in transfected cells; host or cells: HEK-293
The assay is described as follows: Serotonergic transporter binding ([3H]imipramine). Conditions: [3H]imipramine 2 nM, HEK-293 recombinant, read-out: percentage inhibition at 10 μM of control specific binding to the serotonergic transporter. The procedure:
The serotonergic 5-HT transporter was isolated from human recombinant HEK-293 cells according to the method described by Tatsumi et al. (1997), Pharmacological profile of antidepressants and related compounds at human monoamine transporters, Eur. J. Pharmacol., 340: 249-258.
Serotonergic transporter binding was determined by a radioligand method using tritium-labelled imipramine (2 nM) as substrate (Tatsumi et al., 1999). Ligand radioactivity was determined by liquid scintillation counting. Ligand incubations were carried out for thirty minutes at 22° C. The experiment was conducted in duplicate.
The specific ligand binding to the serotonergic transporter was defined as the difference between the total binding and the non specific binding determined in presence of an excess of unlabelled ligand. The results obtained are presented in Table 3 hereinbelow and are expressed as percent of control specific binding and as a percent inhibition of control specific binding obtained in presence of 10 μM of substance.

The next assay has as its target T2, PDE2 (Homo sapiens, UniProt O00408).
T2 construct: PDE2 was isolated from human platelets, provided by Etablissement Français du Sang-Alsace; tissue Etablissement Français du Sang-Alsace; host or cells: human platelets
The assay is described as follows: Inhibition of PDE2 (radioenzymatic phosphodiesterase assay). Type of assay: biochemical. As to the method: (§1) 2.1.1. Isolation of Phosphodiesterases from Smooth Muscle A 3 g segment of bovine aortic media cut into pieces with scissors was homogenized with an ultra-turrax then a potter glass/glass homogenizer in 7 volumes by weight of buffer A containing a protease inhibitor cocktail (20 mM Tris-HCl, 0.25 M saccharose, 2 mM magnesium acetate, 1 mM dithiothreitol, 5 mM EGTA, 2000 U/ml aprotinin, 10 mg/l leupeptin and 10 mg/l soya trypsic inhibitor). The homogenizate was centrifuged at 105,000 g for 1 hour. The supernatant was loaded on a DEAE-Sephacel column (15×1.6 cm) pre-equilibrated with buffer B (buffer A without the saccharose, EGTA and protease inhibitors). The column was washed until there was no detectable absorption at 280 nm, then eluted with a linear gradient of NaCl (0-0.5 M) in buffer B. 3-ml fractions were collected and enzyme activity was determined under the conditions described hereinbelow to localize the different enzymes PDE1, PDE3, PDE4 and PDE5 which were aliquoted and frozen at −80° C. (Lugnier et al., Biochem. Phamacol., 1986, 35: 1746-1751). PDE2 was isolated from human platelets, provided by Etablissement Français du Sang-Alsace, according to Kameni Tcheudji J F et al., (J. Mol. Biol. 2001; 310: 181-791), and stored until use at −80° C. in small aliquots.
(§2) Cyclic nucleotide phosphodiesterase activity was determined by a radioenzymatic method using tritium-labelled cyclic GMP or AMP (1 μM) as substrate (Lugnier et al., 1986). ^3H-labelled adenosine or guanosine monophosphate formed by hydrolysis of the radiolabelled cyclic nucleotide was then converted to ^3H-labelled adenosine or guanosine in a second reaction with […] in excess. The nucleoside formed was separated from the nucleotides by anion exchange chromatography. Nucleoside radioactivity was determined by liquid scintillation counting. Enzymatic incubations were carried out under conditions allowing no more than 15% hydrolysis of the substrate; each point was performed in duplicate.
The concentration of substance which inhibits enzymatic activity by 50% (IC50) at 1 μM cyclic AMP was calculated by nonlinear regression from the experimental values of hydrolysis rate (Prism, GraphPad).

In a further assay the test system is PDE4. The assay is described as follows: Selectivity: inhibition of PDE4 (radioenzymatic assay). The following applies: Table 2; for PDE4 percentage inhibition at 10 μM: 10 μM compound. Type of assay: biochemical, bovine. As to the method: as §1, §2
(§3) The activity of the compounds was evaluated on other phosphodiesterase isoforms, particularly basal state or calmodulin-activated PDE1 from vascular smooth muscle, PDE3, PDE4 and PDE5 from vascular smooth muscle. The results obtained are presented in Tables 1 and 2 hereinbelow and are expressed as the percentage inhibition of enzymatic activity produced by […] of the test compound.

Another assay deals with σ receptors. The assay is described as follows: Isolated organ bioassay, field-stimulated vas deferens: test for antagonist activity. Conditions: for Response to (+)SKF-10,047 (1.0 10^−4 M) in the presence of the compound: mean, n=2. Also noted: species or system guinea pig. The procedure:
Segments of guinea pig vas deferens were suspended in 20-ml organ baths containing an oxygenated (95% O2 and 5% CO2) and pre-warmed (37° C.) physiological salt solution of the following composition (in mM): NaCl 118.0, KCl 4.7, MgSO4 1.2, CaCl2 2.5, KH2PO4 1.2, NaHCO3 25.0 and glucose 11.0 (pH 7.4). Yohimbine (1 μM), (−) sulpiride (1 μM), atropine (1 μM) and naloxone (1 μM) were also present throughout the experiments to block the α2-adrenergic, dopamine D2, muscarinic and opioid receptors, respectively. The tissues were connected to force transducers for isometric tension recordings. They were stretched to a resting tension of 0.5 g, allowed to equilibrate for at least 30 min during which time they were washed repeatedly and the tension readjusted. Thereafter, they were stimulated electrically using a constant current stimulator.
The tissues were exposed to a submaximal concentration of the reference agonist (+) SKF-10047 (100 μM) to obtain a control response. After stabilization of the (+) SKF-10047-induced response, increasing concentrations of substance or the reference antagonist rimcazole were added cumulatively. Each concentration was left in contact with the tissues until a stable response was obtained or for a maximum of 15 min. If it occurred, an inhibition of the (+) SKF-10047-induced increase in twitch contraction amplitude by substance indicated an antagonist activity at the σ receptors.
The parameter measured was the maximum change in the twitch contraction amplitude induced by each compound concentration. The results are expressed as a percent variation of the control twitch contraction amplitude (mean values). The effects of substance tested at 1.0 10^−6 M, 3.0 10^−6 M and 1.0 10^−5 M for agonist and antagonist activities at the σ receptors in the guinea pig vas deferens bioassay are summarized in Tables 6-7 where those of the reference compounds are also reported.

The next assay deals with T3, PDE3 (Bos taurus, UniProt A0A3Q1M1E8).
T3 sequence (A0A3Q1M1E8 1-1126): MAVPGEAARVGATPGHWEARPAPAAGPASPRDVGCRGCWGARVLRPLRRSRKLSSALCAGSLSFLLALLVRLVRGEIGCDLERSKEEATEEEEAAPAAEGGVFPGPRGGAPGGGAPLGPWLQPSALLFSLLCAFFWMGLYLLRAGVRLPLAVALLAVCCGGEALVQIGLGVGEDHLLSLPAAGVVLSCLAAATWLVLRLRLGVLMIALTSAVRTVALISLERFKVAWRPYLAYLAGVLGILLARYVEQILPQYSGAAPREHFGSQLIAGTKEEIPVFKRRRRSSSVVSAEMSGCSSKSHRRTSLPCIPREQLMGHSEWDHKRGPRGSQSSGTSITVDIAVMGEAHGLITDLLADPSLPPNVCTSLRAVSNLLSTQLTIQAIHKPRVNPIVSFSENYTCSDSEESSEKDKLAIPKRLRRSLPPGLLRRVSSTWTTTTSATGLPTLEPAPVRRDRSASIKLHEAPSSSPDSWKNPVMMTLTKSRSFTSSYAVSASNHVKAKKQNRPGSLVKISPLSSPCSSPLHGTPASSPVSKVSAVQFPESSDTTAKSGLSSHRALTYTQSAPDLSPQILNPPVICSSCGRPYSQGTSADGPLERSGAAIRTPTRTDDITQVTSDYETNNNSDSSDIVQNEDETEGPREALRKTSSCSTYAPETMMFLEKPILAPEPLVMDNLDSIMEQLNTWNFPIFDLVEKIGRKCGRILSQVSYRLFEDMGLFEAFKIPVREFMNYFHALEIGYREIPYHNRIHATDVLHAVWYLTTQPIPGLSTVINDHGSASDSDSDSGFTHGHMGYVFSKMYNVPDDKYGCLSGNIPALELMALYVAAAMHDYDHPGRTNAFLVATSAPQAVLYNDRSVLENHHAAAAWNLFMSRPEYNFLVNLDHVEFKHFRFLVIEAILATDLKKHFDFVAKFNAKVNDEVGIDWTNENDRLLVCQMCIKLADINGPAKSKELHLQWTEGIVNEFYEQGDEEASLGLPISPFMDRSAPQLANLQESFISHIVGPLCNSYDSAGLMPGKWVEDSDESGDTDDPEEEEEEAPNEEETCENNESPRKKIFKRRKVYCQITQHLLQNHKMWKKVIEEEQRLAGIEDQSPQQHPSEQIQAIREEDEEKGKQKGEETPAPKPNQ
The assay is described as follows: Selectivity: inhibition of PDE3 (radioenzymatic assay). The assay is classed as biochemical, bovine. The following applies: Table 2; 10 μM compound; read-out: PDE3 percentage inhibition at 10 μM. The procedure:
as §1, with “PDE2 was isolated from human platelets, provided by Etablissement Français du Sang-Alsace, according to Kameni Tcheudji J F et al., (J. Mol. Biol. 2001; 310: 181-791), and stored until use at −80° C. in small aliquots.” left out
Cyclic nucleotide phosphodiesterase activity was determined by a radioenzymatic method using tritium-labelled cyclic GMP or AMP (1 μM) as substrate (Lugnier et al., 1986). ^3H-labelled adenosine or guanosine monophosphate formed by hydrolysis of the radiolabelled cyclic nucleotide was then converted to ^3H-labelled adenosine or guanosine in a second reaction with one nucleotidase in excess. […] Nucleoside radioactivity was determined by liquid scintillation counting. […]
as §3

Setting [1] is: read-out: PDE2 percentage inhibition at 10 μM, Table 1, 10 μM compound, 1 μM cyclic AMP.
The mark [2] stands for this setting: Table 1, 10 μM compound, 1 μM cyclic AMP, read-out: PDE2 percentage inhibition at 10 μM.

T2 sequence (O00408 whole entry): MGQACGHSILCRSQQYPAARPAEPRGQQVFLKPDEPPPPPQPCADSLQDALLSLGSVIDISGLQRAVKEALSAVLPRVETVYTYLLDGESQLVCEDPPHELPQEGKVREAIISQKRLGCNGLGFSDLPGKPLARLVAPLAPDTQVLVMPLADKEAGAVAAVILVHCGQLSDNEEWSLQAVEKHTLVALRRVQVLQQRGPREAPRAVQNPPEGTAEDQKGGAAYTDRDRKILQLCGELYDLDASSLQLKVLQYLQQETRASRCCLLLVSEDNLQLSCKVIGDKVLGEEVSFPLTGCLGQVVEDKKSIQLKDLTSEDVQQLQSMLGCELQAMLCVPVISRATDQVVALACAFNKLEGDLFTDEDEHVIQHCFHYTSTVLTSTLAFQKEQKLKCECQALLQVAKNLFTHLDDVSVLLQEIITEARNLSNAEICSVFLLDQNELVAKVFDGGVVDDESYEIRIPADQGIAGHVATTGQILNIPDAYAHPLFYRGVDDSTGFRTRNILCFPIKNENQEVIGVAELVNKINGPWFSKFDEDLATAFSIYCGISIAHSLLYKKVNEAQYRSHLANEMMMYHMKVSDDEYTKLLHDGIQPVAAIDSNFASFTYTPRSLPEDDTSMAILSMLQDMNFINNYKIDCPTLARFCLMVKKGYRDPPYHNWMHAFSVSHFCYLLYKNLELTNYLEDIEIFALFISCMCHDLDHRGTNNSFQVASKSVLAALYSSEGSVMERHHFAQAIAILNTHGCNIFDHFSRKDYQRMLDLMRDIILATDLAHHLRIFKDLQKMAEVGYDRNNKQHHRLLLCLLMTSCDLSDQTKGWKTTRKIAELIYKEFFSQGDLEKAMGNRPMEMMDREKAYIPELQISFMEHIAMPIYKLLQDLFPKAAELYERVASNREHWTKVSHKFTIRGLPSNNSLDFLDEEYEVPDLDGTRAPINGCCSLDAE
T1 sequence (P31645 whole entry): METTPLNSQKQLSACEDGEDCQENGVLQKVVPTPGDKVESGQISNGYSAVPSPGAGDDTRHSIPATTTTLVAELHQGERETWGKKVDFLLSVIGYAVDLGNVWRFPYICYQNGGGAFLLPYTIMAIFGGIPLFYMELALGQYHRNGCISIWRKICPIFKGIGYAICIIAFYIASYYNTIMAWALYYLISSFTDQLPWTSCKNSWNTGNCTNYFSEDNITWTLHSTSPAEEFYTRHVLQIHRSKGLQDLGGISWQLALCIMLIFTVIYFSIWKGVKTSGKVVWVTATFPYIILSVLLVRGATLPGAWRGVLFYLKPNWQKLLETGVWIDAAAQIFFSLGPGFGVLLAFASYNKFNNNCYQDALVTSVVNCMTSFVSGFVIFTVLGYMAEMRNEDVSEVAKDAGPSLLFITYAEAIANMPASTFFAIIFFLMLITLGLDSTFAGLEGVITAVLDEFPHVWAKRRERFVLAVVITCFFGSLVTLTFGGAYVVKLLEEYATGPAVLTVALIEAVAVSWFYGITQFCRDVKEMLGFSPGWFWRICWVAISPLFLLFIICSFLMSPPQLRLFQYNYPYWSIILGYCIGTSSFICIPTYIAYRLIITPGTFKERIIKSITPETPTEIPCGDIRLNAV

Consider `COc1cc2c(c(OC)c1-c1ccccc1)C(c1cccc(C#N)c1)=NCC(=O)N2` [Compound 1, 3-(6,8-Dimethoxy-2-oxo-7-phenyl-2,3-dihydro-1H-benzo[e][1,4]diazepin-5-yl)-benzonitrile], for which the inhibition (as a rule, the percentage by which the read-out fell short of the control) at 10 µM on 5-HT transporter came to 5%; at PDE2 (setting [1]), 9%; on PDE2 (read-out: PDE2 percentage inhibition at 10 μM, Table 2, 10 μM compound), 9%. Besides, it took 3 µM to reach half-maximal inhibition at PDE2 (IC50). Besides, the “PDE4 percentage inhibition at 10 μM” value in the assay on PDE4 stood at 43.3%.
As to `COc1cc2c(c(OC)c1-c1ccc(Cl)cc1)C(c1cccc(C#N)c1)=NCC(=O)N2C` [Compound 7, 3-[7-(4-Chloro-phenyl)-6,8-dimethoxy-1-methyl-2-oxo-2,3-dihydro-1H-benzo[e][1,4]diazepin-5-yl]-benzonitrile], the inhibition at 10 µM was determined as 16% on 5-HT transporter and 61% at PDE2 (setting [2]). Also, the IC50 (in general, the concentration at which inhibition is half-maximal) on PDE2 amounted to 4.6 µM. For the same molecule, the “PDE4 percentage inhibition at 10 μM” value in the assay on PDE4 came to 41%.
With `COc1cc2c(c(OC)c1-c1cccnc1)C(c1cccc(C(N)=O)c1)=NCC(=O)N2` [Compound 20, 3-(6,8-Dimethoxy-2-oxo-7-pyridin-3-yl-2,3-dihydro-1H-benzo[e][1,4]diazepin-5-yl)-benzamide], at 5-HT transporter, the inhibition at 10 µM turned out to be 16%. Further, on PDE2 (Table 1, 10 μM compound, 1 μM cyclic AMP), the “PDE2 percentage inhibition at 10 μM” value is on record as 68%.
Regarding `C[C@@H]1CN(CCCn2c3ccccc3c3ccccc32)C[C@H](C)N1` [rimcazole], the “Response to (+)SKF-10,047 (1.0 10^−4 M) in the presence of the compound” value in the assay on σ receptors (compound 1.0 10^−6 M) is “+111%”; in the assay on σ receptors (compound 3.0 10^−6 M) it was “+52%”; with σ receptors (third (highest) concentration, printed 1.0 10^−6 M), −12%. For the same molecule, the “Effect on the (+) SKF 10,047-induced enhancement of twitch contraction amplitude (in words)” value in the assay with σ receptors (field-stimulated guinea pig vas deferens) is given as “inhibited”.
As to `COc1cc2c(c(OC)c1-c1ccc(Cl)cc1)C(c1cccc(C(N)=O)c1)=NCC(=O)N2C` [Compound 18], the inhibition at 10 µM on 5-HT transporter was determined as 0%; on PDE2 (setting [2]), 98%. The IC50 at PDE2 (Table 1, value in square brackets, 1 μM cyclic AMP, read-out: PDE2 IC50) was determined as 0.3 µM; in the assay on PDE4 (value in square brackets), 6.5 µM. In addition, the “PDE4 percentage inhibition at 10 μM” value in the assay with PDE4 stood at 66%.
As to `COc1cc2c(c(OC)c1-c1cccnc1)C(c1cccc(C#N)c1)=NCC(=O)N2C` [Compound 8, 3-(6,8-Dimethoxy-1-methyl-2-oxo-7-pyridin-3-yl-2,3-dihydro-1H-benzo[e][1,4]diazepin-5-yl)-benzonitrile], the inhibition at 10 µM at 5-HT transporter was 8%; on PDE2 (setting [1]) it was 56%.
For the molecule `COc1cc2c(c(OC)c1-c1ccccc1)C(c1cccc(C#N)c1)=NCC(=O)N2C` [Compound 6, 3-(6,8-Dimethoxy-1-methyl-2-oxo-7-phenyl-2,3-dihydro-1H-benzo[e][1,4]diazepin-5-yl)-benzonitrile], the inhibition at 10 µM was found to be 40% on PDE3 and 80% on PDE2 (setting [2]). Moreover, on PDE2, the IC50 came out at 1.8 µM. Moreover, the “PDE4 percentage inhibition at 10 μM” value with PDE4 is given as 37%.
For `COc1cc2c(c(OC)c1-c1ccc(Cl)cc1)C(c1cccc(C#N)c1)=NCC(=O)N2` [Compound 2, 3-[7-(4-Chloro-phenyl)-6,8-dimethoxy-2-oxo-2,3-dihydro-1H-benzo[e][1,4]diazepin-5-yl]-benzonitrile], the inhibition at 10 µM at 5-HT transporter stood at 12%; at PDE2 (setting [2]), 93%. The molecule also came in with an IC50 on PDE2 of 0.73 µM. The “PDE4 percentage inhibition at 10 μM” value with PDE4 was found to be 58%.
Turning to `COc1cc2c(c(OC)c1-c1ccccc1)C(c1ccccc1)=NCC(=O)N2C` [Compound 9, 6,8-Dimethoxy-1-methyl-5,7-diphenyl-1,3-dihydro-benzo[e][1,4]diazepin-2-one], the values for the inhibition at 10 µM at 5-HT transporter and on PDE2 (setting [2]) were 1% and 71%, respectively.
